Experimental data published in US20220000971A1, “METHODS AND COMPOUNDS FOR TARGETING SORTILIN RECEPTORS AND INHIBITING VASCULOGENIC MIMICRY” (TRANSFERT PLUS, S.E.C., priority 2018, published 2022).

Experiments:
[1] = test system: MDA-MB-231 breast cancer cells; assay: [3H]-Thymidine Incorporation assay; format: cell-based; settings: Homo sapiens, GraphPad Prism
Experimental: FIG. 19 depicts the in vitro anticancer properties of DoceKA against MDA-MB-231 breast cancer cells as determined using the [3H]-Thymidine Incorporation assay. Incorporated [3H]-Thymidine was plotted for each drug concentration. IC50 values (nM) were calculated using the GraphPad Prism software. […] is a set of graphs depicting the cell-cycle distribution of MDA-MB231 cells determined based on cellular DNA content using flow cytometry after 24 hours of treatment with 2 μM Docetaxel or 1 μM DoceKA.

[2] = Blood cell / neutrophil counts after treatment; format: in vivo, nude mice; settings: four days after a single injection at the maximum tolerable dose
Source text: FIG. 27A illustrates the effect on lymphocytes after 3 treatments with different concentrations of Docetaxel or DoceKA. FIG. 27B illustrates the effect on platelets after 3 treatments with different concentrations of Docetaxel or DoceKA. FIG. 27C illustrates the effect on neutrophils after 3 treatments with different concentrations of Docetaxel or DoceKA. IP means intraperitoneal administration, while IV means intravenous delivery.
FIG. 28 depicts the preliminary toxicity data on DoceKA, specifically, the neutrophils count (g/L) after DoceKA treatments at different dosages of Docetaxel or DoceKA.

[3] = cited from earlier work

CC(=O)O[C@@]12CO[C@@H]1C[C@H](O)[C@@]1(C)C(=O)[C@H](O)C3=C(C)[C@@H](OC(=O)[C@H](O)[C@@H](NC(=O)OC(C)(C)C)c4ccccc4)C[C@@](O)([C@@H](OC(=O)c4ccccc4)[C@H]21)C3(C)C [Docetaxel, docetaxel]
IC50 [1]: 680 pM | neutrophils count [2]: drastic reduction in neutrophils count | CL ([3]; Docetaxel 10 mg/kg, mice): 35 mL/min/kg | Vd ([3]; Docetaxel 10 mg/kg, mice): 2.2 to 5 L/kg | t½ adsorption distribution ([3]; Docetaxel 10 mg/kg, mice): 7 min | t½ elimination ([3]; Docetaxel 10 mg/kg, mice): 72 min | Reported Cmax ([3]; Docetaxel dosed at 20 mg/kg): about 20 μg/ml | Cmax ([3]; Docetaxel dosed at 20 mg/kg, read-out: Reported Cmax): ~25 µM
